Measurements from US4127572A, “Method of using 2(1H)-quinazolinethiones” (The Dow Chemical Company, priority 1978, dated 1978).

Key:
reserpine-induced ptosis = experiment: Protection against reserpine-induced ptosis in mice; assay type: in vivo; conditions: 60 mg/kg intraperitoneal, 30 minutes before 2.5 mg/kg reserpine subcutaneous, graded after 45 minutes
Experimental: A similar group of mice serving as controls were injected only with the carrier. After 30 minutes, both groups of mice were injected subcutaneously with 2.5 mg/kg of reserpine. […] Animals injected with the benzotriazepine compound were graded after 45 minutes on the following basis: no ptosis = 0, partial ptosis = 1, complete ptosis = 2.

[1] = system: norepinephrine uptake in synaptosome preparations; experiment: Uptake of norepinephrine in rat forebrain synaptosome preparations; assay type: biochemical, rats; conditions: 10 μg/ml, 37° C., rat forebrain synaptosomes, versus saline control; low values indicate activity
Experimental: (§1) Antidepressant activity may also be illustrated in vitro by measuring the uptake of the neurotransmittors norepinephrine and serotonin in synaptosome preparations prepared from the forebrains of rats. The synaptosome preparation is incubated at 37° C. with radioactive neurotransmittor and the test compound at a concentration of 10 μg/ml. The synaptosome are isolated and the uptake of labelled neurotransmittor measured by liquid scintillation spectrometry using standard techniques. Percent inhibiton of uptake is determined by comparing the radioactivity taken in the synaptosome preparation with that of a similarly incubated saline control. Low values indicate activity.

[2] = system: serotonin uptake in synaptosome preparations; experiment: Uptake of serotonin in rat forebrain synaptosome preparations; assay type: biochemical, rats; conditions: 10 μg/ml, 37° C., rat forebrain synaptosomes, versus saline control; low values indicate activity
Experimental: as §1

[3] = system: stress induced rise of serum corticosteroid levels; experiment: Block of stress induced rise of serum corticosteroid levels in rats; assay type: in vivo; conditions: 10 mg/kg intraperitoneal, stressed male rats; values less than 1.0 indicative of activity
Experimental: See British Medical Journal, 1971(2), p. 310-313. Corticosteroid levels were compared between stressed male rats pretreated with 10 mg/kg given by intraperitoneal injection to corticosteroid levels of stressed male rats pretreated with saline. The results were expressed as a ratio with values less than 1.0 indicative of activity. The compound 6-chloro-3,4-dihydro-4-hydroxy-3-(3-(4-morpholinyl)propyl)-4-phenyl-2(1H)- quinazolinethione (Example 12) gave a value of 0.12.

## 6-chloro-3-(3-dimethylamino)propyl-3,4-dihydro-4-hydroxy-4-phenyl-2(1H)-quinazolinethione [Example 7]
reserpine-induced ptosis; controls 8
  sum of ptosis grades for the four test mice (no ptosis = 0, partial = 1, complete = 2; out of a possible 8): 4
reserpine-induced ptosis; four mice
  protection against reserpine-induced ptosis: 50%

## CCN(CC)CCN1C(=S)Nc2ccc(Cl)cc2C1(O)c1ccccc1 (centres unmarked) [Example 8]
[1]
  norepinephrine uptake relative to saline control: 3%
[2]
  inhibition of seratonin uptake: 7%

## OC1(c2ccccc2)c2cc(Cl)ccc2NC(=S)N1CCCN1CCOCC1 (centres unmarked) [Example 12, 6-chloro-3,4-dihydro-4-hydroxy-3-(3-(4-morpholinyl)propyl)-4-phenyl-2(1H)-quinazolinethione]
[3]
  ratio of corticosteroid levels, stressed rats pretreated with compound to stressed rats pretreated with saline: 0.12
